In patent US10206900B2, “Treatments for fibrotic diseases” (MOR RESEARCH APPLICATIONS LTD., priority 2013, dated 2019):

Tests used:
RPE cells [1] = assay: α-SMA expression (immunostaining) upon TGF-β1 stimulation; format: cell-based; settings: 5Z-7-oxozeaenol 1 μM pretreatment 1 hour, TGF-β1 2.5 ng/ml, serum-free
Procedure: FIGS. 2A-2C TAK1 regulates RPE cells EMT phenotype upon TGF-β stimulation. FIG. 2A: RPE cells were serum-starved for 16 hours, pretreated with 5Z-7-oxozeaenol (1 μM) or left untreated for 1 hour. The cells were then treated with TGF-β1 (2.5 ng/ml) as described herein for 24 h and immunostained with α-SMA antibodies (red) and DAPI (blue). Representative photographs of three independent experiments. The histogram in the bottom panel represents quantification of α-SMA antibody pixel intensity. FIG. 2B: RPE cells were serum-starved for 16 hours, then treated with mitomycin C (10 ng/ml) for 3 h. Thereafter, pretreated with 5Z-7-oxozeaenol (1 μM) or Dimethyl sulfoxide (DMSO) for 1 hour. Following this process a scratch was performed in the cell monolayer and the serum free medium was supplemented with TGF-β1 (2.5 ng/ml) or left unsupplemented. Scratches were photo-documented at the indicated times (top panel) and their width was measured using Image-J software. […] Bars are Mean±SD. FIG. 2C: RPE cells were serum-starved for 16 hours then pretreated with 5Z-7-oxozeaenol (1 μM) or SB431542 (10 μM), or DMSO for 1 hour. […] Total MMP-9 activities were processed by gelatin zymography (top panel) and the band intensity values were calculated by Quantity One® 1-D analysis software. […] Data is expressed as the Mean±SD. […]

MMP-9 = MMP-9 activity by gelatin zymography in RPE cell supernatants; format: cell-based; settings: RPE cells, pretreatment 1 μM, TGF-β1 2.5 ng/ml, 24 hours; TGF-β1 alone 3.2 fold
Procedure: FIGS. 2A-2C TAK1 regulates RPE cells EMT phenotype upon TGF-β stimulation. FIG. 2A: RPE cells were serum-starved for 16 hours, pretreated with 5Z-7-oxozeaenol (1 μM) or left untreated for 1 hour. The cells were then treated with TGF-β1 (2.5 ng/ml) as described herein for 24 h and immunostained with α-SMA antibodies (red) and DAPI (blue). Representative photographs of three independent experiments. The histogram in the bottom panel represents quantification of α-SMA antibody pixel intensity. FIG. 2B: RPE cells were serum-starved for 16 hours, then treated with mitomycin C (10 ng/ml) for 3 h. Thereafter, pretreated with 5Z-7-oxozeaenol (1 μM) or Dimethyl sulfoxide (DMSO) for 1 hour. Following this process a scratch was performed in the cell monolayer and the serum free medium was supplemented with TGF-β1 (2.5 ng/ml) or left unsupplemented. Scratches were photo-documented at the indicated times (top panel) and their width was measured using Image-J software. […] Bars are Mean±SD. FIG. 2C: RPE cells were serum-starved for 16 hours then pretreated with 5Z-7-oxozeaenol (1 μM) or SB431542 (10 μM), or DMSO for 1 hour. […] Total MMP-9 activities were processed by gelatin zymography (top panel) and the band intensity values were calculated by Quantity One® 1-D analysis software. […] Data is expressed as the Mean±SD.

E-cadherin = E-cadherin immunostaining in RPE cells; format: cell-based; settings: 1 μM prior to TGF-β1 stimulation
Procedure: FIG. 3A: RPE cells were plated on fibronectin-coated glass coverslips, serum-starved for 16 hours, pretreated with 5Z-7-oxozeaenol (1 μM) or SB431542 (10 μM), or DMSO for 1 hour, then treated with or without TGF-β1 for 2 days. Following treatment, the cells were stained with rhodamine-phalloidin (actin fibers-red) and DAPI (blue) and visualized by confocal microscopy. Scale bars: […]. FIG. 3B: Serum-starved RPE cells pretreated with 5Z-7-oxozeaenol (1 μM) or DMSO for 1 hour, and were exposed to TGF-β as in FIG. 3A. Total RNA was extracted at each time point and qPCR was performed. Transcription levels of CTGF were determined after 6 h, 16 h and 24 h. Bars represent the specific mRNA amount relative to GAPDH mRNA in the same samples. All experiments were performed in triplicates. A representative histogram from two independent experiments is shown. FIG. 3C: RPE cells were plated and treated as in FIG. 3A. Following treatment, the cells were immunostained with E-cadherin antibodies (green) and DAPI (blue). Representative photographs of two independent experiments are shown. A recent publication has shown that down-regulation of the cell-cell adhesion protein E-cadherin, was considered a hallmark of EMT in RPE cells ([…] et al., Invest Ophthalmol Vis Sci 2010, 51:2755-2763). […]

RPE cells [2] = assay: Collagen lattice contraction upon TNFα stimulation; format: cell-based; settings: 1 μM before 50 ng/ml TNFα, 72 hours
Procedure: FIG. 9: TAK1 regulates RPE cells contraction upon TNFα stimulation. […] RPE cells were seeded in collagen lattices in serum starvation medium. The cells were pretreated with 1 μM 5Z-7 or 1 hour before adding 50 ng/ml TNFα. Lattice were photo-documented after 72 hours and measured using ImajeJ software. The transition of RPE cells to myofibroblasts is characterized, among other aspects, by increased contractile activity (Umazume et al., Invest Ophthalmol Vis Sci 2013, 54:1150-1159; Sakamoto et al., Curr Eye Res 1994, 13:451-459; West-Mays et al., Int J Biochem Cell Biol 2006, 38:1625-1631; Ma et al., Clinical & experimental ophthalmology 2012, 40:e76-86). To examine whether TAK1 is a general regulator of the EMT process affecting cell contractility, floating collagen matrix contraction assay was performed. The test was carried out in full serum with or without TAK1 inhibitor (FIGS. 5A and 5B). While in the control cells significant contraction was observed after 24 hours, reaching 50% of the initial size, TAK1 inhibition impaired the capacity of the cells to contract. The collagen lattice remained nearly 80% from the initial size (FIGS. 5A and B).

Smad2/3 = Smad2/3 phosphorylation by immuno-blot in HT29 colon cells; format: cell-based; settings: HT29 Human colon cells, TGF-β treatment, versus untreated cells
Procedure: FIG. 11. Inhibition of TAK1 abolishes the activation of TGF-β cascades in colon cells. TGF-β1 up-regulates-Smad 2/3 and p38 activation via TAK1 activity in colon cells. HT29 Human colon cells were treated with or without 5Z-7-oxozeaenol followed by TGF-β treatment. Smad2/3 and p38 phosphorylation patterns were examined by immuno-blots. HT29 Human colon cells were treated as in the previous examples with or without 5Z-7-oxozeaenol, followed by TGF-β treatment. Inhibition of TAK1 was assayed by observation of Smad2/3 and p38 phosphorylation patterns by immuno-blots.

aortic ring explants = assay: Aortic ring assay ex vivo; settings: aortic ring explants in Matrigel, 1 μM, 8 days
Procedure: FIG. 15: TAK1 regulates the fibrotic switch in aortic injury ex vivo. aortic ring explants were seeded in Matrigel with or without 5z-7 (1 μM) for 8 days and then photo-documented. The photographs shown are representative from one of three independent experiments (N=9). As can been in the control aortic ring explants there is growth of sprouts due to the injury/fibrotic process.

## COc1cc(O)c2c(c1)/C=C/C[C@H](O)[C@H](O)C(=O)/C=C\C[C@H](C)OC2=O [5Z-7-oxozeaenol]
RPE cells [1]
  TGF-β1-stimulated α-SMA expression: significantly attenuated
MMP-9
  MMP-9 activity, fold higher than the control group: 1.59 fold
E-cadherin
  E-cadherin expression upon TGF-β1: allowing normal E-cadherin expression
RPE cells [2]
  collagen contraction after EMT stimulation by TNFα: significantly reduced collagen contraction
Smad2/3
  Smad2/3 phosphorylation: significantly inhibited
Aortic ring explants
  fibrotic effect resultant from the injury process (sprout growth): abolish the fibrotic effect
